# “And” between values parts separate entries of the source, which are not always exact repeats. Equal entries are not always repeated.
# Legend:
# [1] = Effect of infusion on feed intake and digestibility; type: in vivo, sheep; settings: for Digested DM, MPA / Digestibility (% DM), MPA / Intake DM, MPA: MPA infused at 192 mg Sulphur/sheep/day; for Digested DM, MPA / Digestibility (% DM), MPA / Intake DM, MPA / Digested DM, % (+) / Digestibility, % (+) / Intake DM, % (+) increase after infusion of MPA: individual sheep and Aver. n = 13; for Digested DM, % (+) / Digestibility, % (+) / Intake DM, % (+) increase after infusion of MPA: versus control period
# Protocol: Feed was prepared as previously described (see example 4). Initially 22 sheep were fed 1 kg of alkali straw/day in the animal house for 4 days to select out sheep not eating the diet. 19 sheep were weighted and transferred to metabolism cages and feed the alkali straw diet ad-lib. Sheep were fed and on the following day the feed refusal weighted and if less then 100 g remained a further 100 g was fed; if 100-200g of feed remained the sheep was given the same amount of feed; if over 200 g of feed was left the sheep was given 100 g less feed. Over the following week another 6 sheep were moved out of the experiment (usually due to very low or erratic intakes). […] After 14 days infusion the collection period of 7 days commenced. Feed refusals were weighted, recorded, and a sample of up to 200 g/day pooled for subsequent analyses. Spilt feed was collected daily, weighted, recorded, and discarded. Faeces were collected with separators that excluded urine. The faeces were weighed and sub-sampled and pooled for subsequent analyses. Pooled faeces and feed were stored at −20° C. and then dried in a hot air oven (faeces were initially dried at 70° C.) at 100° C. cooled and weighted to determine dry weight (DM). Following the last sampling the infusion was stopped in the first group of sheep and on the following day the infusion treatment was begun in the other group of seven sheep. The second period (the crossover) was conducted in the same way as the first period with the same samples being taken at the same times.
# Total Bacteria = test: Effect of infusion on total bacteria in rumen fluid; type: in vivo; set-up: Total Bacteria, MPA: unit not given here; settings: individual sheep and Aver. n = 13; for Total Bacteria, MPA: MPA infused at 192 mg Sulphur/sheep/day; for Total Bacteria, log (+): versus control period
# Protocol: Feed was prepared as previously described (see example 4). Initially 22 sheep were fed 1 kg of alkali straw/day in the animal house for 4 days to select out sheep not eating the diet. 19 sheep were weighted and transferred to metabolism cages and feed the alkali straw diet ad-lib. Sheep were fed and on the following day the feed refusal weighted and if less then 100 g remained a further 100 g was fed; if 100-200g of feed remained the sheep was given the same amount of feed; if over 200 g of feed was left the sheep was given 100 g less feed. Over the following week another 6 sheep were moved out of the experiment (usually due to very low or erratic intakes). […] After 14 days infusion the collection period of 7 days commenced. At the end of the collection period samples of rumen digesta were taken for microbiology and other analyses. Rumen fluid was collected and fungal zoospores and total bacteria assessed as described in example 4 (the total bacteria were assessed on the same medium but without antibiotics). Cellulolytic bacteria were assessed by a most probable number count. Rumen fluid was serially diluted and subsamples of each dilution inoculated into 5 culture tubes containing an anaerobic medium containing rumen fluid and strips of filter paper. After incubation the presence of cellulolytic bacteria was detected by degradation of the paper and the numbers of positive tubes compared to tables to give a number of these bacteria in the original sample. Following the last sampling the infusion was stopped in the first group of sheep and on the following day the infusion treatment was begun in the other group of seven sheep. The second period (the crossover) was conducted in the same way as the first period with the same samples being taken at the same times.
# [2] = tested on: Neocallimastix isolates LM1 and TGB1; Piromyces isolates SM1, CS15 and TZB2; test: In vitro growth of selected fungal isolates at different doses of MPA; type: cell-based; settings: MPA 0-1.6 mM, media with 0.5% CHO, FIGS. 2a and 2b
# Protocol: Five isolates were recovered in standard media from cryopreservation and one isolate was obtained from the culture collection. Table 2 below indicates nature of isolates.
# Each isolate was transferred from standard media to a modification of the low sulphur media described in Example 1. Carbohydrates (glucose+cellobiose) were added to give either 0.2% (in subculture phase ) or 0.5% (in test phase)
# . Triplicate tubes of the three concentrations were inoculated with each isolate and after 3-4 days subcultured using the tubes with the best apparent growth. […] This was to be the final assessment however as some growth was obtained in the 0 controls so all tubes were subcultured again into the same type of media. After a weeks incubation growth was determined by the decrease in media pH as described in Example 1.
compound,measurement,setting,value
"O=C(O)CCS [MPA, 3-mercaptopropanoic acid]",response in digestive performance to infusion,"[1]; 192 mg Sulphur/day/sheep, with the exception of one animal","strong, positive, response"
same,"Digested DM, MPA",[1]; Table 4,357.26 g/day and 603.65 g/day and 558.00 g/day and 518.94 g/day and 806.76 g/day and 603.24 g/day and 630.64 g/day and 662.31 g/day and 673.01 g/day and 657.21 g/day and 714.69 g/day and 347.27 g/day and 414.97 g/day
same,"Digestibility (% DM), MPA",[1]; Table 4,50.799 % DM and 51.891 % DM and 45.708 % DM and 52.812 % DM and 58.076 % DM and 53.589 % DM and 46.808 % DM and 51.433 % DM and 53.840 % DM and 51.933 % DM and 48.119 % DM and 54.648 % DM and 51.522 % DM
same,"Intake DM, MPA",[1]; Table 4,703 g/day and 1163 g/day and 1221 g/day and 983 g/day and 1389 g/day and 1126 g/day and 1347 g/day and 1288 g/day and 1250 g/day and 1265 g/day and 1485 g/day and 635 g/day and 805 g/day
same,"Digested DM, MPA","[1]; Table 4, mean of 13 sheep",581 g/day
same,"Digestibility (% DM), MPA","[1]; Table 4, mean of 13 sheep",51.6 % DM
same,"Intake DM, MPA","[1]; Table 4, mean of 13 sheep",1128 g/day
same,"Digested DM, % (+)",[1]; Table 4,38.13% and 51.61% and 32.51% and 37.28% and 41.04% and 36.94% and 24.76% and 17.23% and 46.34% and 40.49% and 9.57% and 38.47% and 63.31%
same,"Digestibility, % (+)",[1]; Table 4,5.019% and 7.795% and 2.610% and 1.453% and 5.112% and 7.462% and 2.544% and 0.444% and 2.855% and 4.777% and 0.002% and 7.459% and 7.799%
same,"Intake DM, % (+) increase after infusion of MPA",[1]; Table 4,24.5% and 28.8% and 24.9% and 33.5% and 28.6% and 17.9% and 18.0% and 16.2% and 38.6% (2×) and 27.5% and 9.6% and 19.6%
same,"Digested DM, % (+)","[1]; Table 4, mean of 13 sheep",36.75%
same,"Digestibility, % (+)","[1]; Table 4, mean of 13 sheep",4.26%
same,"Intake DM, % (+) increase after infusion of MPA","[1]; Table 4, mean of 13 sheep",25.1%
same,"Intake DM, MPA",[1]; Table 5,805 g/day and 703 g/day and 1163 g/day and 1221 g/day and 983 g/day and 1389 g/day and 1126 g/day and 1347 g/day and 1288 g/day and 1250 g/day and 1265 g/day and 1485 g/day and 635 g/day
same,"Intake DM, MPA","[1]; Table 5, mean",1128 g/day
same,"Intake DM, % (+) increase after infusion of MPA",[1]; Table 5,38.6% (2×) and 24.5% and 28.8% and 24.9% and 33.5% and 28.6% and 17.9% and 18.0% and 16.2% and 27.5% and 9.6% and 19.6%
same,"Intake DM, % (+) increase after infusion of MPA","[1]; Table 5, mean",25.1%
same,"Total Bacteria, MPA",Total Bacteria,10.50 × 10^8 (2×) and 8.07 × 10^8 and 6.83 × 10^8 and 7.50 × 10^8 and 10.00 × 10^8 and 7.17 × 10^8 and 5.87 × 10^8 and 12.00 × 10^8 and 14.50 × 10^8 and 10.83 × 10^8 and 10.67 × 10^8 and 6.33 × 10^8
same,"Total Bacteria, MPA",Total Bacteria; mean,9.29 × 10^8
same,"Total Bacteria, log (+)",Total Bacteria,0.27 log and 0.31 log (2×) and −0.34 log (2×) and −0.17 log and 0.02 log and 0.05 log and 0.25 log (2×) and 0.29 log and 0.33 log and 0.10 log
same,"Total Bacteria, log (+)",Total Bacteria; mean,0.10 log
same,growth response of sheep versus non-sheep isolates,[2],no clear difference between the sheep and non-sheep isolates
